Experimental data from US20210115145A1, “COMBINATION THERAPY WITH TARGETED TGF-B INHIBITION FOR TREATMENT OF ADVANCED NON-SMALL CELL LUNG CANCER” (Merck Patent GmbH, priority 2018, published 2021).

Columns and labels:
[1] = test system: EMT-6 xenografts; assay: Mouse PK/Efficacy model from EMT-6 xenograft efficacy results; format: in vivo
Method: Experiments were also conducted to determine the efficacy of the anti-PD-L1/TGFβ Trap molecule in a tumor model. Efficacy results from EMT-6 xenografts were used to establish the PK/Efficacy model.
The model predictions are able to capture the tumor volume distributions. Conditional weighted residuals are normally distributed with a 0 mean and 1 variance without a trend. The PK/Efficacy model was then used to simulate tumor growth inhibition (TGI) using the human predicted concentration-time profiles at different doses.

[2] = test system: advanced NSCLC; assay: Clinical study in 2L NSCLC, q2w dosing: response per RECIST v1.1; format: in vivo, human
[3] = test system: mouse tumor models; assay: Antitumor activity in mouse tumor models; format: in vivo
[4] = test system: PD-L1 and TGFβ; assay: Two-step ELISA, simultaneous binding
[5] = test system: PD-L1 and TGFβ dependent signaling; assay: Inhibition of PD-L1 and TGFβ dependent signaling in vitro; format: cell-based
[6] = test system: advanced malignant melanoma or renal cell carcinoma; conditions: cited from earlier work
[7] = test system: melanoma; conditions: Phase I; cited from earlier work
[8] = test system: scarring after eye surgery; conditions: Phase 3; cited from earlier work
[9] = biological target: TGFβ1 (Homo sapiens, UniProt P01137); conditions: binding of TGFβ1; cited from earlier work
[10] = PK/Efficacy model parameter estimate, EMT-6 xenograft mice
[11] = PD-L1 high (≥80%) pts, 500 mg q2w
[12] = PD-L1 high (≥80%) pts, 1200 mg q2w

Chain of TGFβ1 (P01137 279-390 limits assumed, species assumed): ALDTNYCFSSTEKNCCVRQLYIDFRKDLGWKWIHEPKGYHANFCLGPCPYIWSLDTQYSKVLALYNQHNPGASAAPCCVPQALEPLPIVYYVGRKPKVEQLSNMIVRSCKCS

anti-PD-L1/TGFβ Trap: bi-functional fusion protein: anti-PD-L1 antibody heavy chains fused via glycine-serine linker to extracellular domain of human TGFβRII; SEQ ID NO: 3 and 1
KC50 [1, 10]: 55324.6 ng/mL | Kmax [1, 10]: 2 | KC50 (average plasma concentration for 50% of the maximal anti-tumor activity) ([1]; estimated, EMT-6 xenografts): 55.3 µg/mL | ORR, % ([2]; All patients, 500 mg q2w): 20.0% | ORR, n (responders/patients) ([2]; All patients, 500 mg q2w): 8/40 | ORR, % ([2]; All patients, 1200 mg q2w): 27.5% | ORR, n (responders/patients) ([2]; All patients, 1200 mg q2w): 11/40 | ORR, n (responders/patients) ([2]; All patients, Total): 19/80 | ORR, % ([2]; All patients, Total (both doses)): 23.8% | ORR, % ([2]; PD-L1+ (≥1%) pts, 500 mg q2w): 19.4% | ORR, n (responders/patients) ([2]; PD-L1+ (≥1%) pts, 500 mg q2w): 6/31 | ORR, % ([2]; PD-L1+ (≥1%) pts, 1200 mg q2w): 40.7% | ORR, n (responders/patients) ([2]; PD-L1+ (≥1%) pts, 1200 mg q2w): 11/27 | ORR, % ([2]; PD-L1+ (≥1%) pts, Total): 29.3% | ORR, n (responders/patients) ([2]; PD-L1+ (≥1%) pts, Total): 17/58 | ORR, % [2, 11]: 33.3% | ORR, n (responders/patients) [2, 11]: 2/6 | ORR, % [2, 12]: 85.7% | ORR, n (responders/patients) [2, 12]: 6/7 | ORR, % ([2]; PD-L1 high (≥80%) pts, Total): 62.0% | ORR, n (responders/patients) ([2]; PD-L1 high (≥80%) pts, Total): 8/13 | partial responses (PR) ([2]; across both dose levels (500 mg and 1200 mg q2w), 80 patients): 18 | complete response (CR) ([2]; at 1200 mg q2w): 1 | antitumor activity and survival versus anti PD-L1 antibody avelumab or TGFβ Trap control alone ([3]; mouse tumor models, preclinical data): strongly enhances antitumor activity and prolongs survival | antitumor activity ([3]; variety of mouse models): potent antitumor activity | simultaneous binding to PD-L1 and TGFβ ([4]; FIG. 2): simultaneously binds to both PD-L1 and TGFβ | simultaneous binding to PD-L1 and TGFβ ([4]; FIG. 2, listed as protein of the present disclosure): simultaneously bound to both PD-L1 and TGFβ | PD-L1 and TGFβ dependent signaling [5]: inhibited

GC1008: a human antibody specific for all isoforms of TGFβ
clinical efficacy ([6]; Phase I/II, patients): only limited clinical efficacy | safety ([6]; in vivo): safe and well tolerated

fresolimumab: monoclonal antibody targeting TGFβ1, 2 and 3
tumor response [7]: initial evidence of tumor response

B1: Lerdelimumab: an antibody specific for TGFβ2 (antibody, chains of the INN, looked up, V domains shown)
VH: EVQLVESGGGVVQPGRSLRLSCAASGFTFSSYGMHWVRQAPGKGLEWVAVIWYDGSNKYYADSVKGRFTISRDNSKNTLYLQMDSLRAEDTAVYYCGRTLESSLWGQGTLVTVSS
VL: SSELTQDPAVSVALGQTVRITCQGDSLRSYYASWYQQKPGQAPVLVIYGKNNRPSGIPDRFSGSSSGNTASLTITGAQAEDEADYYCNSRDSSSTHRGVFGGGTKLTVL
safety and efficacy at improving scarring [8]: safe but ineffective

B2: recombinant soluble TGFβRII: recombinant soluble extracellular domain of TGFβRII (protein, UniProt P37173 23-166, looked up)
extracellular domain: TIPPHVQKSVNNDMIVTDNNGAVKFPQLCKFCDVRFSTCDNQKSCMSNCSITSICEKPQEVCVAVWRKNDENITLETVCHDPKLPYHDFILEDAASPKCIMKEKKKPGETFFMCSCSSDECNDNIIFSEEYNTSNPDLLLVIFQ
modifications: extracellular domain
Kd [9]: 200 pM
